The values below are quoted from earlier work in patent publication US20220047530A1, “USE OF HORDENINE IN PREPARING DRUG FOR TREATING HYPOPHYSOMA” (Wuhan Third Hospital, priority 2019, published 2022).

The subject of this data set is pituitary prolactinoma. As to conditions: patients; cited from earlier work.

On to `CC(C)C[C@H]1C(=O)N2CCC[C@H]2[C@]2(O)O[C@](NC(=O)[C@@H]3C=C4c5cccc6[nH]c(Br)c(c56)C[C@H]4N(C)C3)(C(C)C)C(=O)N12` [bromocriptine], for which the side effects entry was “mainly gastrointestinal reactions”.
